{"source": "paper PMC10808720", "about": "(Frontiers in Pharmacology, 2024)", "key": {"HAdV5-GFP": {"tested_on": "HAdV5-GFP", "assay": "microbe, parasite or virus in culture", "format": "cell-based, human adenovirus (HAdV5)", "details": "for Selectivity index: CC50 (A549) vs IC50 plaque assay (HAdV5)", "description": "Compounds were tested using low MOI infections (0.06 vp/cell), initially at concentrations of 10 μM and subsequently in a dose-response assay ranging from 10 μM to 2.44 nM in a plaque assay. Briefly, 293β5 cells were seeded in 6-well plates at a density of 1 × 10^6 cells per well in duplicate for each condition. When the cells reached 80%–90% confluency, they were infected with HAdV5-GFP and rocked for 2 h at 37°C. After the incubation, the inoculum was removed and the cells were washed once with PBS. Cells were then carefully overlaid with equal parts of 4 mL/well 1.6% ([…]) Difco Agar Noble (Becton, Dickinson & Co., Sparks, MD, USA) and 2× Eagle’s Minimum Essential Medium (EMEM; BioWhittaker) supplemented with 2×penicillin/streptomycin, 2× L-glutamine, and 10% FBS. The mixture also contained the compounds in the concentration ranges described above. Following incubation for 7 days at 37°C, plates were scanned with a Typhoon FLA 9000 imager (GE Healthcare Life Sciences) and the formed plaques were quantified with ImageJ ([Schneider et al., 2012]). Plaque counting was performed to calculate the 50% inhibitory concentration (IC50) of each compound using the statistical software GraphPad Prism 6."}, "[1]": {"assay": "Cytotoxicity assay (AlamarBlue)", "format": "cell-based, Human", "details": "human, A549 cells; for CC50: 48 h", "description": "The cytotoxicity of the molecules was analyzed using the commercial kit AlamarBlue® (Invitrogen, Ref. DAL1025) according to the manufacturer’s instructions. Briefly, A549 cells were seeded at a density of 5 × 10^3 cells per well in 96-well plates, and decreasing serial dilutions of each molecule were diluted in 100 μL of DMEM starting at 200 μM. The cells were then incubated at 37°C for 48 h following the manufacturer’s protocol. The cytotoxic concentration 50% (CC50) value was obtained using the statistical software GraphPad Prism 6. The assay was performed in duplicate."}, "wild-type HAdV5 [2]": {"tested_on": "wild-type HAdV5", "assay": "HAdV yield reduction (burst) assay, TCID50 end-point dilution", "format": "cell-based, human adenovirus (HAdV5)", "details": "10-fold IC50 concentration, TCID50/ml compound vs. DMSO, A549 cells, 48 h, MOI 100 vp/cell", "description": "A549 cells (1.5 × 10^5 cells/well in a 24-well plate) were incubated 24 h in 500 μL of complete DMEM and they were infected with wild-type HAdV5 (MOI 100 vp/cell) when more than 90% of confluency was observed. Infected cells were incubated for 48 h at 37°C in 500 μL of either complete DMEM containing 10-fold IC50 concentration of compounds obtained in the plaque assay or the same volume of DMSO (positive control). After 48 h, the cells were harvested and subjected to three rounds of freeze/thaw. Serial dilutions of the clarified lysates were titrated against A549 cells (3 × 10^4 cells/well in a 96-well plate) and TCID50 values were calculated using an end-point dilution method ([Reed and Muench, 1938])."}, "p53/MDM2 complex": {"tested_on": "p53/MDM2 complex", "format": "cell-based, Human", "details": "HAdV5-infected A549 cells, 24 h; for concentration of p53/MDM2 complexes, high vs low cell density: 10-fold IC50", "description": "A549 cells were seeded at a density of 1.5 × 10^5 cells per well in a 24-well plate at a high density and 3.75 × 10^4 cells per well at a low density. […] The culture medium was then aspirated and washed with 1X with cold PBS. Later, 200 μL RIPA Lysis Buffer (1% v/v NP-40, 20 mM Tris-HCL pH 7.4, 5 mM Sodium Pyrophosphate, 5 mM EDTA) with freshly added proteinase inhibitor cocktail (Thermo Fisher Scientific) was added to each well and swirled to distribute it evenly. Cells were then scraped and collected to incubate them for 30 min on ice and finally centrifuged at 13,000 × g for 5 min at 4°C. […] This assay was performed in triplicate."}, "wild-type HAdV5 [3]": {"tested_on": "wild-type HAdV5", "assay": "HAdV DNA quantification by qPCR", "format": "cell-based, human adenovirus (HAdV5)", "details": "10-fold IC50; A549; 24 h; vs DMSO control", "description": "For DNA quantification, A549 cells (1.5 × 10^5 cells/well in a 24-well plate) were incubated for 24 h in 500 μL of complete DMEM and were infected with wild-type HAdV5 (MOI 100 vp/cell) after observing more than 90% of confluency. Infected cells were incubated for 24 h at 37°C in 500 μL of either complete DMEM containing 10-fold IC50 concentration of the compounds obtained in the plaque assay or the same volume of DMSO (positive control). All samples were prepared in duplicate. After 24 h of incubation at 37°C, DNA was purified from the cell lysate with the E.Z.N.A.® Tissue DNA Kit (Omega Bio-tek, Norcross, GA) following the manufacturer’s instructions. PCR conditions, primers, and probes were as described by [Henke-Gendo et al. (2012)]. Human glyceraldehyde-3-phosphate dehydrogenase (GAPDH) gene was used as an internal control. GAPDH oligonucleotide sequences and conditions were as previously described by [Rivera et al. (2004)].\nFor quantification, gene fragments from hexons, and GAPDH were cloned into the pGEM-T Easy vector (Promega) and known concentrations of the template were used to generate a standard curve in parallel for each experiment, as previously reported ([Sanchez-Cespedes et al., 2016]). All assays were performed in thermal cycler LightCycler® 96 System (Roche)."}, "HCMV": {"tested_on": "HCMV", "assay": "Impact on HCMV replication (qPCR of HCMV DNA in HFF)", "format": "cell-based, human cytomegalovirus", "details": "2-fold IC50 (HAdV plaque assay), 72 h", "description": "To test the anti-HCMV activity of these rotenolone-related compounds, human foreskin fibroblasts (HFF; ATCC, Manassas, VA) were seeded in a 24-well plate (8.3 × 10^4 cells/well), infected with HCMV (MOI 0.05 vp/cell), and incubated in complete DMEM in the presence of either 2-fold IC50 concentration of each compound obtained in the plaque assay against HAdV or the same volume of DMSO (positive control) in duplicate. The cells were incubated for 72 h at 37°C and 5% CO2 and HCMV DNA was purified from the cell lysate using E.Z.N.A Tissue DNA Kit (Omega Biotek, Norcross, GA, USA) following the manufacturer’s instructions. The qPCR primers, conditions, and protocols were the same as previously reported ([Mazzotta et al., 2020b])."}, "HAdV5-RFP": {"tested_on": "HAdV5-RFP", "assay": "Anti-HAdV activity after knockdown of RPS14 by siRNA (RFP expression)", "format": "cell-based, human adenovirus (HAdV5)", "details": "RPS14 knockdown 293β5 cells; 10-fold IC50; 48 h", "description": "An siRNA approach was used to evaluate the antiviral activity of these molecules in the absence of RPS14. According to the supplier’s protocol (Effectene Transfection Reagent, QIAGEN, Valencia, CA), 293β5 cells at 1.5 × 10^4 cells/well were seeded in a clear bottom 96-well microplate a day before transfection. On the day of transfection, 0.1 µg siRNA (MISSION esiRNA RPS14, SigmaAldrich) was diluted in EC buffer up to 30 µL/well and 0.8 µL/well of the enhancer was added and the mix was incubated for 5 min. Effectene transfection reagent was added and the mix was incubated for 10 min to allow transfection complex formation. The cell layers were washed with 1x PBS and transfection complexes were poured over them. After 6 h of incubation, the transfection complexes were removed and the cells were infected with HAdV5-RFP (MOI 2,000 viral particles/cell) in the presence of a 10-fold IC50 concentration of the compounds obtained in the plaque assay or the same volume of DMSO. Standard infection was induced in the presence of the same concentrations of the compounds (performed in triplicate), and a control without siRNA. Cells, viruses, and compounds were incubated for 48 h at 37°C and 5% CO2. Infection, as measured by HAdV5-mediated RFP expression, was analyzed using a Typhoon 9410 imager (GE Healthcare Life Sciences) and quantified using ImageQuantTL (GE Healthcare Life Sciences)."}, "[4]": {"details": "Human adenovirus sp., 168 h, read-out: IC50 plaque assay"}}, "note": "Entries after “also recorded” stand apart in the source; their conditions may differ. Where two headings read alike, the source gives them in different places."}
{"smiles": "COc1cc2c(cc1OC)[C@@H]1C(=O)c3ccc4c(c3O[C@@H]1CO2)C=CC(C)(C)O4", "note": "[Deguelin, (7aS,13aS)-13,13a-Dihydro-9,10-dimethoxy-3,3-dimethyl-3H-bis ([Mennechet et al., 2019])benzopyrano[3,4-b:6′,5′-e]pyran-7-(7aH)-one]", "values": [{"measurement": "Selectivity index", "setting": "HAdV5-GFP", "result": "2,429.3"}, {"measurement": "IC50", "setting": "HAdV5-GFP; [4]", "result": "0.04 ± 0.01", "unit": "µM"}, {"measurement": "CC50", "setting": "[1]", "result": "97.2 ± 0.1", "unit": "µM"}, {"measurement": "Virus Yield Fold-reduction", "setting": "wild-type HAdV5 [2]", "result": "2.7E+02 ± 19.4", "unit": "fold"}, {"measurement": "Virus Yield Fold-reduction", "setting": "wild-type HAdV5 [2]; listed as deguelin", "result": 270, "unit": "fold"}, {"measurement": "concentration of p53/MDM2 complexes, high vs low cell density", "setting": "p53/MDM2 complex", "result": "non among emetine, rotenone, deguelin and tephrosin alter the concentrations"}, {"measurement": "HAdV DNA copy number (de novo synthesis)", "setting": "wild-type HAdV5 [3]", "result": "significant decrease"}, {"measurement": "inhibition of HCMV replication", "setting": "HCMV", "result": 50, "unit": "%"}]}
{"smiles": "CC1(C)C=Cc2c(ccc3c2O[C@@H]2COc4cc5c(cc4[C@@H]2C3=O)OCO5)O1", "note": "[Millettone]", "values": [{"measurement": "Selectivity index", "setting": "HAdV5-GFP", "result": 23.8}, {"measurement": "IC50", "setting": "HAdV5-GFP; [4]", "result": "4.6 ± 0.54", "unit": "µM"}, {"measurement": "inhibition at 10 µM", "setting": "HAdV5-GFP; Human adenovirus sp., read-out: inhibition of plaque formation", "result": "> 98", "unit": "%"}, {"measurement": "CC50", "setting": "[1]", "result": "109 ± 2.2", "unit": "µM"}, {"measurement": "increase of HCMV replication compared with the control treated with DMSO", "setting": "HCMV", "result": "more than 10 times"}, {"measurement": "inhibition of HCMV replication", "setting": "HCMV", "result": "did not inhibit"}]}
{"smiles": "COc1cc2c(cc1OC)[C@]1(O)C(=O)c3ccc4c(c3O[C@@H]1CO2)C=CC(C)(C)O4", "note": "[Tephrosin, hydroxydeguelin]", "values": [{"measurement": "Selectivity index", "setting": "HAdV5-GFP", "result": 538.9}, {"measurement": "IC50", "setting": "HAdV5-GFP; [4]", "result": "0.07 ± 0.03", "unit": "µM"}, {"measurement": "CC50 at 48 h", "setting": "[1]", "result": "37.7 ± 0.6", "unit": "µM"}, {"measurement": "Virus Yield Fold-reduction", "setting": "wild-type HAdV5 [2]", "result": "2.7E+03 ± 987.3", "unit": "fold"}, {"measurement": "concentration of p53/MDM2 complexes, high vs low cell density", "setting": "p53/MDM2 complex", "result": "non among emetine, rotenone, deguelin and tephrosin alter the concentrations"}, {"measurement": "inhibition of HCMV replication", "setting": "HCMV", "result": 83.4, "unit": "%"}]}
{"smiles": "CC[C@H]1CN2CCc3cc(OC)c(OC)cc3[C@@H]2C[C@@H]1C[C@H]1NCCc2cc(OC)c(OC)cc21", "note": "[emetine, reference compound]", "values": [{"measurement": "IC50", "setting": "HAdV5-GFP; Human adenovirus sp.", "result": "0.085 ± 0.019", "unit": "µM"}, {"measurement": "CC50", "setting": "[1]", "result": "6.17 ± 0.04", "unit": "µM"}, {"measurement": "concentration of p53/MDM2 complexes, high vs low cell density", "setting": "p53/MDM2 complex", "result": "no differences based on the cell density; also recorded: non among emetine, rotenone, deguelin and tephrosin alter the concentrations"}, {"measurement": "concentration of p53/MDM2 complexes", "setting": "p53/MDM2 complex", "result": "dramatically reduced"}, {"measurement": "HAdV-mediated RFP expression when no RPS14 was available", "setting": "HAdV5-RFP", "result": "reduced"}]}
